These results are taken from article PMC12992715, “Dual interference with host neuropeptide signaling allows parasitoid wasp to hijack host sugar metabolism” (The EMBO Journal, 2025).

One test concerns P. xylostella larvae. Briefly: Feeding time and feeding interval time. Type of test: in vivo, Plutella xylostella. As to conditions: sPxsNPF-1-injected, middle 4th instar; words. An excerpt: Appendix Figure S4. PxsNPF is mainly expressed in the CNS and midgut-trachea of the host as an appetite-suppressing hormone
(A) Relative mRNA levels of PxsNPF in different tissues of non-parasitized and C. vestalis-parasitized host larvae at late 3rd instar (n = 3). (B) Left: schematic diagram of the general composition and cell types of the midgut. EC, enterocyte; ISC, intestinal stem cell; EB, enteroblast; EE, enteroendocrine cell; BM, basement membrane; VM, visceral muscle. Right: PxsNPF (red) is expressed in the tracheae of the midgut (white arrowheads). Nuclei were labelled by DAPI (blue). NP: non-parasitized hosts, P: parasitized hosts. Scale bars, 200 μm. (C) Immunostaining of PxsNPF prepropeptide (red) in the whole midgut of non-parasitized and parasitized P. xylostella larvae at late 3rd-instar. White dashed boxes indicate areas magnified in Fig.
5E. Nuclei were labelled by DAPI (blue). Scale bar: 500 μm. (D) Feeding time (left, n = 40 for grey, n = 23 for blue, n = 54 for red, n = 29 for purple) and interval time (right, n = 35 for grey, n = 13 for blue, n = 33 for red, n = 25 for purple) of non-parasitized, C. vestalis-parasitized, and sPxsNPF-1-injected and sCvsNPF-injected P. xylostella larvae at middle 4th-instar during feeding behaviour. Data are represented as […]
Two-tailed unpaired Student’s t-test, except for (D) (One-way ANOVA and Tukey’s multiple comparison tests). […]

The test system of test [1] is P. xylostella fat body and midgut transcriptome. Briefly: RNA sequencing of fat body and midgut after injection of sPxsNPF-1 or sCvsNPF. Type of test: in vivo, Plutella xylostella. Here is the method: The fat body and midgut of the 4 M instar P. xylostella larvae were dissected under the microscope in PBS on ice. Total RNA was isolated using an RNA isolater Total RNA Extraction Reagent (Vazyme) according to the manufacturer’s instructions. The quality and the concentration of the isolated total RNA were estimated by electrophoresis and a NanoDrop 2000. The transcriptome sequencing was performed at Annoroad Gene Technology. cDNA libraries for transcriptome sequencing made from the total RNA were prepared using the NEBNext Ultra RNA Library Prep Kit for Illumina in conjunction with the NEBNext Poly (A) mRNA Magnetic Isolation Module. Libraries were validated and quantified before being pooled and sequenced on an Illumina HiSeq 2000 (Illumina) sequencer with a 150 bp paired-end protocol. The raw reads were filtered by removing adaptor sequences, empty reads and low-quality sequences (reads with unknown sequences ‘N’). Sequences were de novo assembled using Trinity on a Galaxy Portal, and both ends were sequenced. The fragments per kilobase of transcript per million mapped reads (FPKM) method was used to analyse the expression profiles of all unigenes in different samples. Read counts were input into DESeq2 to calculate differential gene expression and statistical significance. […]

A further test relates to PxsNPFR. Briefly: cAMP-Glo assay: inhibition of forskolin-induced cAMP accumulation in PxsNPFR-expressing HEK293 cells. Type of test: cell-based, Plutella xylostella. (In general: cAMP levels reflect the balance of adenylyl cyclase and phosphodiesterase activity.)

No end group written: not given here.

Description for PxsNPFR: Cells were treated with 10 μM forskolin and various concentrations of the indicated peptide for 15 min at 37 °C (n = 3). […] Data are represented as mean ± SEM. *P<0.05, **P< 0.01, ***P< 0.005, not shown P > 0.05. […] (A) Two-tailed unpaired Student’s t test; (B–H) one-way ANOVA and Tukey’s multiple comparison tests.
Measurement of cyclic AMP in the HEK293/PxsNPFR cell line was accomplished with the cAMP-Glo™ Assay (Promega) according to the manufacturer’s instructions. Cells were seeded into the 96-well tissue culture plate (Thermo) overnight to grow at a recommended cell density (2500-10,000 cells/well). For the assay, cells were washed three times with PBS and then stimulated with 10 μM forskolin (Beyotime, added with 500 μM IBMX, Sigma-Aldrich) alone or 10 μM forskolin (added with 500 μM IBMX) with the indicated concentrations of synthetic sNPF for 15 min at room temperature. To generate a cAMP standard curve, cAMP standards supplied with the kit were prepared in a separate 96-well. Chemiluminescent signals were measured for 1 s/well on a SpectraMax iD5 Multi-Mode Microplate Reader (Molecular Devices).

For “SVRSPSRRLRF-NH2 [sPxsNPF-1, synthetic short neuropeptide F-1 of Plutella xylostella]”, in the test with P. xylostella larvae, the feeding interval time entry is given as “longer” and the feeding time result is recorded as “unaffected”. In addition, in test [1] (157 transcripts in both sets), the “DEGs common to sPxsNPF-1 and sCvsNPF sets” value was 3.6%. Moreover, the “expression of genes involved in Gq activation (PLC, IP3)” value in test [1] (RNA-seq after injection, words) is listed as “significantly upregulated after sPxsNPF-1 injection”. Besides, in the test on PxsNPFR (HEK293/PxsNPFR, 10 μM forskolin + 500 μM IBMX, 15 min, various peptide concentrations, result in words), the “inhibition of forskolin-stimulated cAMP accumulation” value is reported as “an inhibitory effect was not observed”. The “G protein coupling of the peptide-PxsNPFR complex” value with PxsNPFR (conclusion from cAMP and Ca2+ assays, words) is on record as “regulates Gq protein-mediated signalling”.
